This assay addresses T1, purified recombinant human p38 alpha MAPK (Homo sapiens, UniProt Q16539).
T1 construct: purchased Millipore, USA
The assay is described as follows: Inhibition of p38 alpha MAPK activity, TR-FRET kinase assay. The class given is biochemical. As to conditions: read-out: P38α Inhibition; for inhibition at 1 µM: Concentration 1 μM. The essentials:
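Recombinant human p38α preincubated 15 min at RT with compound (0.5–1.0% DMSO), then 30 nM biotinylated GST-ATF2 and 100 μM ATP added for 60 min at RT. Stopped with EDTA; Eu-anti-phospho-ATF2 and APC-streptavidin detection, 60 min. % inhibition from 665/615 nm TR-FRET ratio.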

Experimental findings from patent publication US9963463B2, “Urea-substituted indanes as P38 map kinase inhibitors” (TORRENT PHARMACEUTICALS LIMITED, priority 2014, dated 2018) are described below.

What is called inhibition is the share of the control response that was lost under treatment.

T1 sequence (Q16539 whole entry): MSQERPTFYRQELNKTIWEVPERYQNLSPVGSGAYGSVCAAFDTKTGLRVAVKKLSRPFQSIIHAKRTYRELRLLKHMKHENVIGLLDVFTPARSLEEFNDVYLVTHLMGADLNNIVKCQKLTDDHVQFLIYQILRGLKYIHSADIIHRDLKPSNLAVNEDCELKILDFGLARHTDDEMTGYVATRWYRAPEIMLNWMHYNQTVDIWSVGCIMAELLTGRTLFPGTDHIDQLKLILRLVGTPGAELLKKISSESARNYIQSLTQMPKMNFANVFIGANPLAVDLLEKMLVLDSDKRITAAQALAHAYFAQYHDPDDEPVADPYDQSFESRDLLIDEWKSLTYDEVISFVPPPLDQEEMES

Consider `CCOC(=O)c1c(NC(=O)C2CC2)sc2c1CCN(C(=O)COc1ccc(NC(=O)Nc3cc(C(C)(C)C)nn3-c3ccc(C)cc3)c3c1CCC3)C2` [Compound 54, ethyl 6-({[7-({[3-tert-butyl-1-(4-methylphenyl)-1H-pyrazol-5-yl]carbamoyl}amino)-2,3-dihydro-1H-inden-4-yl]oxy}acetyl)-2-[(cyclopropylcarbonyl)amino]-4,5,6,7-tetrahydrothieno[2,3-c]pyridine-3-carboxylate], for which the inhibition at 1 µM was less than 20%.
On the same count and under the same terms, for `CC(=O)Nc1cc2c(s1)CCN(C(=O)COc1ccc(NC(=O)Nc3cc(C(C)(C)C)nn3-c3ccc(C4CCCCC4)cc3)c3c1CCC3)C2` [Compound 55, N-[5-({[7-({[3-tert-butyl-1-(4-cyclohexylphenyl)-1H-pyrazol-5-yl]carbamoyl}amino)-2,3-dihydro-1H-inden-4-yl]oxy}acetyl)-4,5,6,7-tetrahydrothieno[3,2-c]pyridin-2-yl]acetamide] the value was less than 20%.
Take `Cc1ccc(-n2nc(C(C)(C)C)cc2NC(=O)Nc2ccc(OCC(=O)N3CCn4c(nnc4C(F)(F)F)C3)c3c2CCC3)cc1Cl` [Compound 56, 1-[3-tert-butyl-1-(3-chloro-4-methylphenyl)-1H-pyrazol-5-yl]-3-(7-{2-oxo-2-[3-(trifluoromethyl)-5,6-dihydro[1,2,4]triazolo[4,3-a]pyrazin-7(8H)-yl]ethoxy}-2,3-dihydro-1H-inden-4-yl)urea]: the inhibition at 1 µM is 40 to 60%.
For the compound `Cc1ccc(-n2nc(C(C)(C)C)cc2NC(=O)Nc2ccc(OCC(=O)N3CCn4c(nnc4-c4ccccc4)C3)c3c2CCC3)cc1` [Compound 57, 1-[3-tert-butyl-1-(4-methylphenyl)-1H-pyrazol-5-yl]-3-{7-[2-oxo-2-(3-phenyl-5,6-dihydro[1,2,4]triazolo[4,3-a]pyrazin-7(8H)-yl)ethoxy]-2,3-dihydro-1H-inden-4-yl}urea], the inhibition at 1 µM fell in the range of 60 to 80%.
On to `COc1ccc(-c2nnc3n2CCN(C(=O)COc2ccc(NC(=O)Nc4cc(C(C)(C)C)nn4-c4ccccc4)c4c2CCC4)C3)cc1Cl` [Compound 58, 1-(3-tert-butyl-1-phenyl-1H-pyrazol-5-yl)-3-(7-{2-[3-(3-chloro-4-methoxyphenyl)-5,6-dihydro[1,2,4]triazolo[4,3-a]pyrazin-7(8H)-yl]-2-oxoethoxy}-2,3-dihydro-1H-inden-4-yl)urea], for which the inhibition at 1 µM was in the range of 40 to 60%.
Consider `CCCN1CCN(CCOc2ccc(NC(=O)Nc3cc(C(C)(C)C)nn3-c3ccc(C)cc3)c3c2CCC3)CC1=O` [Compound 59, 1-[3-tert-butyl-1-(4-methylphenyl)-1H-pyrazol-5-yl]-3-{7-[2-(3-oxo-4-propylpiperazin-1-yl)ethoxy]-2,3-dihydro-1H-inden-4-yl}urea], for which the inhibition at 1 µM is 60 to 80%.
Consider `CC(C)(C)c1cc(NC(=O)Nc2ccc(OCCN3CCN(CC4CC4)C(=O)C3)c3c2CCC3)n(-c2ccc(F)cc2)n1` [Compound 60, 1-[3-tert-butyl-1-(4-fluorophenyl)-1H-pyrazol-5-yl]-3-(7-{2-[4-(cyclopropylmethyl)-3-oxopiperazin-1-yl]ethoxy}-2,3-dihydro-1H-inden-4-yl)urea], for which the inhibition at 1 µM lay within 60 to 80%.
As for `CC(C)(C)c1cc(NC(=O)Nc2ccc(OCCN3CCN(CC4CC4)C(=O)C3)c3c2CCC3)n(-c2ccccc2)n1` [Compound 61, 1-(3-tert-butyl-1-phenyl-1H-pyrazol-5-yl)-3-(7-{2-[4-(cyclopropylmethyl)-3-oxopiperazin-1-yl]ethoxy}-2,3-dihydro-1H-inden-4-yl)urea], the inhibition at 1 µM was in the range of 60 to 80%.
`Cc1ccccc1-n1nc(C(C)(C)C)cc1NC(=O)Nc1ccc(OCCN2CCN(CC3CC3)C(=O)C2)c2c1CCC2` [Compound 62, 1-[3-tert-butyl-1-(2-methylphenyl)-1H-pyrazol-5-yl]-3-(7-{2-[4-(cyclopropylmethyl)-3-oxopiperazin-1-yl]ethoxy}-2,3-dihydro-1H-inden-4-yl)urea]: the inhibition at 1 µM lay in the range of 40 to 60%.
For the compound `CC(C)(C)c1cc(NC(=O)Nc2ccc(OCCN3CCn4c(nnc4-c4ccc(O)cc4O)C3)c3c2CCC3)n(-c2ccc(O)c(Cl)c2)n1` [Compound 63, 1-[3-tert-butyl-1-(3-chloro-4-hydroxyphenyl)-1H-pyrazol-5-yl]-3-(7-{2-[3-(2,4-dihydroxyphenyl)-5,6-dihydro[1,2,4]triazolo[4,3-a]pyrazin-7(8H)-yl]ethoxy}-2,3-dihydro-1H-inden-4-yl)urea], the inhibition at 0.1 µM (Concentration 100 nM) is 60 to 80%.
On to `COc1c(NC(=O)Nc2ccc(OCCN3CCN(CC4CC4)C(=O)C3)c3c2CCC3)cc(C(C)(C)C)cc1NC(=O)C1CC1` [Compound 64, N-(5-tert-butyl-3-{[(7-{2-[4-(cyclopropylmethyl)-3-oxopiperazin-1-yl]ethoxy}-2,3-dihydro-1H-inden-4-yl)carbamoyl]amino}-2-methoxyphenyl)cyclopropanecarboxamide], for which the inhibition at 1 µM lay within 20 to 40%.
In the case of `CC(C)(C)c1cc(NC(=O)Nc2ccc(OCCN3CCn4c(nnc4C4CCCCC4)C3)c3c2CCC3)n(-c2ccc(O)c(Cl)c2)n1` [Compound 65, 1-[3-tert-butyl-1-(3-chloro-4-hydroxyphenyl)-1H-pyrazol-5-yl]-3-{7-[2-(3-cyclohexyl-5,6-dihydro[1,2,4]triazolo[4,3-a]pyrazin-7(8H)-yl)ethoxy]-2,3-dihydro-1H-inden-4-yl}urea], the inhibition at 1 µM was 20 to 40%.
Consider `Cc1ccc(-n2nc(C(C)(C)C)cc2NC(=O)Nc2cc(C)c(OCCN3CCn4c(nnc4-c4cc(Cl)ccc4O)C3)c3c2CCC3)cc1` [Compound 66, 1-[3-tert-butyl-1-(4-methylphenyl)-1H-pyrazol-5-yl]-3-(7-{2-[3-(5-chloro-2-hydroxyphenyl)-5,6-dihydro[1,2,4]triazolo[4,3-a]pyrazin-7(8H)-yl]ethoxy}-6-methyl-2,3-dihydro-1H-inden-4-yl)urea], for which the inhibition at 1 µM is less than 20%.
Turning to `Cc1ccc(-n2nc(C(C)(C)C)cc2NC(=O)Nc2ccc(OCCN3CCn4c(nnc4-c4cccc5ccccc45)C3)c3c2CCC3)cc1` [Compound 67, 1-[3-tert-butyl-1-(4-methylphenyl)-1H-pyrazol-5-yl]-3-(7-{2-[3-(naphthalen-1-yl)-5,6-dihydro[1,2,4]triazolo[4,3-a]pyrazin-7(8H)-yl]ethoxy}-2,3-dihydro-1H-inden-4-yl)urea], the inhibition at 1 µM lay in the range of 60 to 80%.
In the case of `Cc1ccc(-n2nc(C(C)(C)C)cc2NC(=O)Nc2ccc(OCCN3CCn4c(nnc4C4CCCCC4)C3)c3c2CCC3)cc1` [Compound 68, 1-[3-tert-butyl-1-(4-methylphenyl)-1H-pyrazol-5-yl]-3-{7-[2-(3-cyclohexyl-5,6-dihydro[1,2,4]triazolo[4,3-a]pyrazin-7(8H)-yl)ethoxy]-2,3-dihydro-1H-inden-4-yl}urea], the inhibition at 1 µM lay within 40 to 60%.
For the compound `Cc1ccc(-n2nc(C(C)(C)C)cc2NC(=O)Nc2ccc(OCCN3CCn4c(nnc4-c4oc5ccccc5c4C)C3)c3c2CCC3)cc1` [Compound 69, 1-[3-tert-butyl-1-(4-methylphenyl)-1H-pyrazol-5-yl]-3-(7-{2-[3-(3-methyl-1-benzofuran-2-yl)-5,6-dihydro[1,2,4]triazolo[4,3-a]pyrazin-7(8H)-yl]ethoxy}-2,3-dihydro-1H-inden-4-yl)urea], the inhibition at 1 µM is 40 to 60%.
For the compound `COc1cc(-n2nc(C(C)(C)C)cc2NC(=O)Nc2ccc(OCCN3CCN(CC4CC4)C(=O)C3)c3c2CCC3)cc(OC)c1OC` [Compound 70, 1-[3-tert-butyl-1-(3,4,5-trimethoxyphenyl)-1H-pyrazol-5-yl]-3-(7-{2-[4-(cyclopropylmethyl)-3-oxopiperazin-1-yl]ethoxy}-2,3-dihydro-1H-inden-4-yl)urea], the inhibition at 1 µM lay in the range of 40 to 60%.
Consider `COc1c(NC(=O)Nc2ccc(OCCN3CCn4c(nnc4C4CCCCC4)C3)c3c2CCC3)cc(C(C)(C)C)cc1NS(C)(=O)=O` [Compound 72, N-{5-tert-butyl-3-[({7-[2-(3-cyclohexyl-5,6-dihydro[1,2,4]triazolo[4,3-a]pyrazin-7(8H)-yl)ethoxy]-2,3-dihydro-1H-inden-4-yl}carbamoyl)amino]-2-methoxyphenyl}methanesulfonamide], for which the inhibition at 1 µM was in the range of 40 to 60%.
As to `COc1c(NC(=O)Nc2cc(C)c(OCCN3CCn4c(nnc4-c4cc(Cl)ccc4O)C3)c3c2CCC3)cc(C(C)(C)C)cc1NS(C)(=O)=O` [Compound 73, N-(5-tert-butyl-3-{[(7-{2-[3-(5-chloro-2-hydroxyphenyl)-5,6-dihydro[1,2,4]triazolo[4,3-a]pyrazin-7(8H)-yl]ethoxy}-6-methyl-2,3-dihydro-1H-inden-4-yl)carbamoyl]amino}-2-methoxyphenyl)methanesulfonamide], the inhibition at 1 µM lay in the range of 40 to 60%.
Regarding `COc1c(NC(=O)Nc2ccc(OCCN3CCn4c(nnc4-c4cccc5ccccc45)C3)c3c2CCC3)cc(C(C)(C)C)cc1NS(C)(=O)=O` [Compound 74, N-(5-tert-butyl-2-methoxy-3-{[(7-{2-[3-(naphthalen-1-yl)-5,6-dihydro[1,2,4]triazolo[4,3-a]pyrazin-7(8H)-yl]ethoxy}-2,3-dihydro-1H-inden-4-yl)carbamoyl]amino}phenyl)methanesulfonamide], the inhibition at 1 µM fell in the range of 60 to 80%.
